Measured values: ChEMBL document CHEMBL6114967, “Design and synthesis of novel sulfur-substituted triptolide with the ability to induce autophagy through inhibition of SRSF1 expression” (Eur J Med Chem, 2025)
The source made the active and inactive calls. No cut-off for these calls is given here.

Tests used:
[1] = system: HGC-27; experiment: Induction of autophagy in human HGC-27 cells assessed as upregulation of ATG5 protein level at 0.5 to 2 uM incubated for 48 hrs by Western blotting analysis; format: functional, cell-based; conditions: dose 0.5-2 µM
[2] = system: HGC-27; experiment: Induction of autophagy in human HGC-27 cells assessed as downregulation of P62 protein level at 0.5 to 2 uM incubated for 48 hrs by Western blotting analysis; format: functional, cell-based; conditions: dose 0.5-2 µM
[3] = system: AGS; experiment: Induction of apoptosis in human AGS cells assessed as late apoptotic cells at 2 uM incubated for 48 hrs by annexin V-FITC and PI staining based flow cytometry analysis (reference value: 3.15%); format: functional
[4] = system: AGS; experiment: Induction of autophagy in human AGS cells assessed as upregulation of ATG5 protein level at 0.5 to 2 uM incubated for 48 hrs by Western blotting analysis; format: functional, cell-based; conditions: dose 0.5-2 µM
[5] = system: MCF7; experiment: Antiproliferative activity against human MCF7 cells assessed as inhibition of cell proliferation incubated for 72 hrs by MTT assay; format: functional, cell-based; conditions: MCF7, 72 h
[6] = system: AGS; experiment: Induction of autophagy in human AGS cells assessed as downregulation of P62 protein level at 0.5 to 2 uM incubated for 48 hrs by Western blotting analysis; format: functional, cell-based; conditions: dose 0.5-2 µM
[7] = system: HGC-27; experiment: Downregulation of RNA splicing pathway in human HGC-27 cells at 2 uM incubated for 24 hrs by KEGG enrichment analysis; format: functional, cell-based
[8] = Selectivity index, ratio of IC50 for antiproliferative activity against human LO2 cells to IC50 for antiproliferative activity against human HGC-27 cells; format: toxicity, cell-based; conditions: LO2 cells and HGC-27 cells, read-out: Ratio IC50
[9] = system: AGS; experiment: Induction of apoptosis in human AGS cells assessed as necrotic cells at 1 uM incubated for 48 hrs by annexin V-FITC and PI staining based flow cytometry analysis (reference value: 0.44%); format: functional

With `CC(C)[C@]12O[C@H]1[C@@H]1O[C@]13[C@]1(O[C@H]1C[C@H]1C4=C(CC[C@@]13C)C(=S)OC4)[C@@H]2O` the Activity [1] was “Active”, the Activity [2] was “Active” and the Activity [3] was 31.7%. For the same compound, the Activity [4] was “Active”, the IC50 [5] was 760 nM and the Activity [6] was “Active”. For the same compound, the Activity [7] was “Active”, the selectivity ratio [8] was 6.56 and the Activity [9] was 0.73%.
